Legend:
[1] = target: T1, neutrophil elastase (Homo sapiens, UniProt P08246); assay: Neutrophil elastase assay of ADCs; type: biochemical; details: 8-load ADC, 37 C, 3 h, pH 7.5, FIG. 6A
T1 sequence (P08246 30-267): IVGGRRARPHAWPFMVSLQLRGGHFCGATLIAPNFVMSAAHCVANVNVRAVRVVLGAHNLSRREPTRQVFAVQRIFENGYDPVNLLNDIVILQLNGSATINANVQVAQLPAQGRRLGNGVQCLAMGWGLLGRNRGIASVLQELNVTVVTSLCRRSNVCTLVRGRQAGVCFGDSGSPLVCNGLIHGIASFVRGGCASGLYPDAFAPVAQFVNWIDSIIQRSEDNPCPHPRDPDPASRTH
Procedure: To a mixture of 8-load ADC (5 ug), buffer (100 mM tris, 75 mM NaCl, pH 7.5; final concentration), and neutrophil elastase (100 ng) was added water to 20 uL. The reaction was incubated at 37 C for 3 h and then immediately analyzed by a QToF mass spectrometer.

[2] = system: non-small-cell lung cancer cells (Calu1); assay: In vitro potency (CellTiter-Glo, 96 h), Calu1; type: cell-based; details: Homo sapiens, Calu-1, 96 h, read-out: Calu1 IC50
Procedure, shortened: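 Authenticated lines (STR), used within 2 months of resuscitation, were seeded 24 h before treatment. Exposure to ADC dilutions lasted 96 h at 37 °C in RPMI 1640 with 20% FBS; viability was quantified luminescently.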

[3] = system: acute myeloid leukemia cells (MOLM-13); assay: In vitro potency (CellTiter-Glo, 96 h), MOLM-13; type: cell-based; details: Homo sapiens, MOLM-13, 96 h, read-out: MOLM-13 IC50, Table 28; CPT free drugs; acute myeloid leukemia cells MOLM-13; 96 h, CellTiter-Glo
Procedure, shortened: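 Antibody-drug conjugates, prepared as dilution series in culture medium, were added to cells seeded a day earlier in RPMI 1640 supplemented with 20% FBS. After four days at 37 °C, luminescence measured growth inhibition.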

[4] = system: HPAFII cell line (Ag1 upregulated); assay: In vitro cytotoxicity of Ag1 ADCs, HPAFII cells; type: cell-based; details: in words, Tables 5a and 5b
Procedure: In vitro cytotoxicity. The cytotoxicity of a tripeptide-based Antibody Drug Conjugate was measured by a cell proliferation assay employing the protocol described in Promega Corp. Technical Bulletin TB288; and Mendoza et al., 2002, Cancer Res. 62:5485-5488), the methods of which are specifically incorporated by reference herein. Briefly, an aliquot of 40 μl of cell culture containing about 400 cells in medium is deposited in each well of a 384-well, opaque-walled plate. A 10 μL aliquot of free drug or Ligand-Drug Conjugate is added to the experimental wells and incubated for 96 h and are then equilibrated to room temperature for approximately 30 minutes whereupon a volume of CellTiter-Glo™ reagent equal to the volume of cell culture medium present in each well is added. The contents are mixed for 2 minutes on an orbital shaker to induce cell lysis and the plate is incubated at room temperature for 10 minutes to stabilize the luminescence signal for recordation.
The italicized values in Tables 5, 5a, and 5b indicate the percentage of cells remaining after 96 hr incubation at the maximum concentration of drug added. For convenience the numbering for the library members of Tables 5 and 5A are retained for the corresponding Drug linker compounds that are incorporated into the ADC of Tables 5, 5a, and 5b.

| Compound | percentage of drug cleaved from the heavy chain by neutrophil elastase [1] | IC50 [2] [nM] | IC50 [3] [nM] | cytotoxicity compared with comparator dipeptide-based ADC (1) [4] | efficacy compared with comparator dipeptide-based ADC (1) [4] |
| --- | --- | --- | --- | --- | --- |
| CC[C@@]1(O)C(=O)OCc2c1cc1n(c2=O)Cc2c-1nc1cc3c(cc1c2CN)CC=C3 [Compound 5] | lower than that found for non-targeted ADC 37 | 129 | 258 |  |  |
| CC[C@@]1(O)C(=O)OCc2c1cc1n(c2=O)Cc2c-1nc1cc3c(cc1c2CN(C)CCCN)OCO3 [Compound 8, (5S)-14-[[3-aminopropyl(methyl)amino]methyl]-5-ethyl-S-hydroxy-7,18,20-trioxa-11,24-diazahexacyclo [11.11.0.02,11.04,9.015,23.017,21]tetracosa-1(13),2,4(9),14,16,21,23-heptaene-6,10-dione; 2,2,2-trifluoroacetic acid] |  |  |  | less cytotoxic | similarly efficacious |

— patent publication US20240207427A1, “SELECTIVE DRUG RELEASE FROM INTERNALIZED CONJUGATES OF BIOLOGICALLY ACTIVE COMPOUNDS” (priority 2021, published 2024)
